test system: BJAB cells; experiment: BJAB cell proliferation (Cell Titer Glo); format: cell-based; details: not given
Outline: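 BJAB cells exposed to serially diluted compounds (0.1% DMSO final) for about 72 h at 37 °C. Proliferation read by Cell Titer Glo luminescence as percent of untreated controls; EC50 from non-linear regression of dose-response data.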

For `Cc1nn(-c2nc(-c3ccc(C#N)cc3)c(SC(C)C)s2)c(C(=O)O)c1-c1cccc(F)c1` [Compound 213, 1-(4-(4-cyanophenyl)-5-(isopropylthio)thiazol-2-yl)-4-(3-fluorophenyl)-3-methyl-1H-pyrazole-5-carboxylic acid], the EC50 was “C-”.

same assay, conditions: Homo sapiens, read-out: EC50

Compared with `COc1cc(Cl)ccc1-c1nc(-n2nc(C)c(-c3cccc(F)c3)c2C(=O)O)sc1SC(C)C` [Compound 205, 1-(4-(4-chloro-2-methoxyphenyl)-5-(isopropylthio)thiazol-2-yl)-4-(3-fluorophenyl)-3-methyl-1H-pyrazole-5-carboxylic acid], `Cc1cc(Cl)ccc1-c1nc(-n2nc(C)c(-c3cccc(F)c3)c2C(=O)O)sc1SC(C)C` [Compound 216, 1-(4-(4-chloro-2-methylphenyl)-5-(isopropylthio)thiazol-2-yl)-4-(3-fluorophenyl)-3-methyl-1H-pyrazole-5-carboxylic acid] is lower in EC50: 1 to 5 µM for the first, under 1 µM for the second.

First: COc1cc(Cl)ccc1-c1nc(-n2nc(C)c(-c3cc(C)nc(C)c3)c2C(=O)O)sc1SC(C)C [Compound 206, 1-(4-(4-chloro-2-methoxyphenyl)-5-(isopropylthio)thiazol-2-yl)-4-(2,6-dimethylpyridin-4-yl)-3-methyl-1H-pyrazole-5-carboxylic Acid]
Second: Cc1nn(-c2nc(-c3ccc(Cl)c(Cl)c3)c(SC(C)C)s2)c(C(=O)O)c1-c1cc(F)cc(Cl)c1 [Compound 225, 4-(3-chloro-5-fluorophenyl)-1-(4-(3,4-dichlorophenyl)-5-(isopropylthio)thiazol-2-yl)-3-methyl-1H-pyrazole-5-carboxylic acid]
The EC50 of the first is higher: 1 to 5 µM for the first, under 1 µM for the second.

First: Cc1ccc(-c2nc(-n3nc(C)c(-c4cccc(F)c4)c3C(=O)O)sc2SC(C)C)cc1Cl [Compound 207, 1-(4-(3-chloro-4-methylphenyl)-5-(isopropylthio)thiazol-2-yl)-4-(3-fluorophenyl)-3-methyl-1H-pyrazole-5-carboxylic Acid]
Second: Cc1ccc(-c2nc(-n3nc(C)c(-c4cccc(F)c4)c3C(=O)O)sc2SC(C)C)cc1F [Compound 214, 1-(4-(3-fluoro-4-methylphenyl)-5-(isopropylthio)thiazol-2-yl)-4-(3-fluorophenyl)-3-methyl-1H-pyrazole-5-carboxylic acid]
The EC50 of the first is higher: 5 to 10 µM for the first, 1 to 5 µM for the second. The second is the more potent here.

First: Cc1nn(-c2nc(-c3cc(C)c(=O)n(C)c3)c(SC(C)C)s2)c(C(=O)O)c1-c1cccc(F)c1 [Compound 208, 1-(4-(1,5-dimethyl-6-oxo-1,6-dihydropyridin-3-yl)-5-(isopropylthio)thiazol-2-yl)-4-(3-fluorophenyl)-3-methyl-1H-pyrazole-5-carboxylic Acid]
Second: Cc1cc(-c2nc(-n3nc(C)c(-c4cccc(F)c4)c3C(=O)O)sc2SC(C)C)ccc1C#N [Compound 226, 1-(4-(4-cyano-3-methylphenyl)-5-(isopropylthio)thiazol-2-yl)-4-(3-fluorophenyl)-3-methyl-1H-pyrazole-5-carboxylic acid]
The EC50 of the first is higher: over 40 µM for the first, 5 to 10 µM for the second. The second is the more potent here.

First: Cc1nn(-c2nc(-c3cc(OC(F)(F)F)ccc3Cl)c(SC(C)C)s2)c(C(=O)O)c1-c1cccc(F)c1 [Compound 209, 1-(4-(2-chloro-5-(trifluoromethoxy)phenyl)-5-(isopropylthio)thiazol-2-yl)-4-(3-fluorophenyl)-3-methyl-1H-pyrazole-5-carboxylic acid]
Second: Cc1cc(OC(F)(F)F)ccc1-c1nc(-n2nc(C)c(-c3cccc(F)c3)c2C(=O)O)sc1SC(C)C [Compound 224, 4-(3-fluorophenyl)-1-(5-(isopropylthio)-4-(2-methyl-4-(trifluoromethoxy)phenyl)thiazol-2-yl)-3-methyl-1H-pyrazole-5-carboxylic acid]
The EC50 of the first is higher: 10 to 25 µM for the first, under 1 µM for the second. The second is the more potent here.

`Cc1nn(-c2nc(-c3cncc(C#N)c3)c(SC(C)C)s2)c(C(=O)O)c1-c1cccc(F)c1` [Compound 210, 1-(4-(5-cyanopyridin-3-yl)-5-(isopropylthio)thiazol-2-yl)-4-(3-fluorophenyl)-3-methyl-1H-pyrazole-5-carboxylic acid] and `Cc1nn(-c2nc(-c3cncc(F)c3)c(SC(C)C)s2)c(C(=O)O)c1-c1cccc(F)c1` [Compound 233, 4-(3-fluorophenyl)-1-(4-(5-fluoropyridin-3-yl)-5-(isopropylthio)thiazol-2-yl)-3-methyl-1H-pyrazole-5-carboxylic Acid] cannot be ordered by EC50: over 40 µM for the first, over 40 µM for the second.

`Cc1cc(-c2nc(-n3nc(C)c(-c4cccc(F)c4)c3C(=O)O)sc2SC(C)C)n(C)n1` [Compound 211, 1-(4-(1,3-dimethyl-1H-pyrazol-5-yl)-5-(isopropylthio)thiazol-2-yl)-4-(3-fluorophenyl)-3-methyl-1H-pyrazole-5-carboxylic acid] and `Cc1nn(-c2nc(-c3cncnc3)c(SC(C)C)s2)c(C(=O)O)c1-c1cccc(F)c1` [Compound 212, 4-(3-fluorophenyl)-1-(5-(isopropylthio)-4-(pyrimidin-5-yl)thiazol-2-yl)-3-methyl-1H-pyrazole-5-carboxylic Acid] cannot be ordered by EC50: over 40 µM for the first, over 40 µM for the second.

`Cc1nn(-c2nc(-c3ccccc3C#N)c(SC(C)C)s2)c(C(=O)O)c1-c1cccc(F)c1` [Compound 215, 1-(4-(2-cyanophenyl)-5-(isopropylthio)thiazol-2-yl)-4-(3-fluorophenyl)-3-methyl-1H-pyrazole-5-carboxylic acid] and `Cc1nn(-c2nc(-c3coc4ccccc34)c(SC(C)C)s2)c(C(=O)O)c1-c1cccc(F)c1` [Compound 234, 1-(4-(benzofuran-3-yl)-5-(isopropylthio)thiazol-2-yl)-4-(3-fluorophenyl)-3-methyl-1H-pyrazole-5-carboxylic Acid] cannot be ordered by EC50: 25 to 50 µM for the first, over 40 µM for the second.

First: Cc1cc(C(F)(F)F)ccc1-c1nc(-n2nc(C)c(-c3cccc(F)c3)c2C(=O)O)sc1SC(C)C [Compound 217, 4-(3-fluorophenyl)-1-(5-(isopropylthio)-4-(2-methyl-4-(trifluoromethyl)phenyl)thiazol-2-yl)-3-methyl-1H-pyrazole-5-carboxylic acid]
Second: Cc1cc(-c2c(C)nn(-c3nc(-c4ccc(C(F)(F)F)cc4)c(SC(C)C)s3)c2C(=O)O)ccc1F [Compound 236, 4-(4-fluoro-3-methylphenyl)-1-(5-(isopropylthio)-4-(4-(trifluoromethyl)phenyl)thiazol-2-yl)-3-methyl-1H-pyrazole-5-carboxylic Acid]
The EC50 of the first is lower: under 1 µM for the first, 1 to 5 µM for the second. The first is the more potent here.

First: Cc1nn(-c2nc(-c3ccc(Cl)c(C#N)c3)c(SC(C)C)s2)c(C(=O)O)c1-c1cccc(F)c1 [Compound 218, 1-(4-(4-chloro-3-cyanophenyl)-5-(isopropylthio)thiazol-2-yl)-4-(3-fluorophenyl)-3-methyl-1H-pyrazole-5-carboxylic Acid]
Second: CC(C)Sc1sc(-n2nc(C(C)C)c(-c3cccc(F)c3)c2C(=O)O)nc1-c1ccc(Cl)c(Cl)c1 [Compound 228, 1-(4-(3,4-dichlorophenyl)-5-(isopropylthio)thiazol-2-yl)-4-(3-fluorophenyl)-3-isopropyl-1H-pyrazole-5-carboxylic Acid]
The EC50 of the first is higher: 5 to 10 µM for the first, 1 to 5 µM for the second. The second is the more potent here.

`Cc1nn(-c2nc(-c3ccc(C(F)(F)F)cc3)c(SC(C)C)s2)c(C(=O)O)c1-c1cc(Cl)cc(Cl)c1` [Compound 219, 4-(3,5-dichlorophenyl)-1-(5-(isopropylthio)-4-(4-(trifluoromethyl)phenyl)thiazol-2-yl)-3-methyl-1H-pyrazole-5-carboxylic Acid] and `Cc1nn(-c2nc(-c3ccc(C(F)(F)F)cc3)c(SC(C)C)s2)c(C(=O)O)c1-c1ccc(F)c(F)c1` [Compound 235, 4-(3,4-difluorophenyl)-1-(5-(isopropylthio)-4-(4-(trifluoromethyl)phenyl)thiazol-2-yl)-3-methyl-1H-pyrazole-5-carboxylic acid] cannot be ordered by EC50: under 1 µM for the first, under 1 µM for the second.

`COCCNC(=O)c1ccc(-c2nc(-n3nc(C)c(-c4cccc(F)c4)c3C(=O)O)sc2SC(C)C)cc1` [Compound 220, 4-(3-fluorophenyl)-1-(5-(isopropylthio)-4-(4-((2-methoxyethyl)carbamoyl)phenyl)thiazol-2-yl)-3-methyl-1H-pyrazole-5-carboxylic Acid] and `Cc1nn(-c2nc(-c3ccc(C(=O)N(C)C)cc3)c(SC(C)C)s2)c(C(=O)O)c1-c1cccc(F)c1` [Compound 221, 1-(4-(4-(dimethylcarbamoyl)phenyl)-5-(isopropylthio)thiazol-2-yl)-4-(3-fluorophenyl)-3-methyl-1H-pyrazole-5-carboxylic acid] cannot be ordered by EC50: over 40 µM for the first, over 40 µM for the second.

First: Cc1nn(-c2nc(-c3ccc(Cl)c(Cl)c3)c(F)s2)c(C(=O)O)c1-c1cccc(F)c1 [Compound 227, 1-(4-(3,4-dichlorophenyl)-5-fluorothiazol-2-yl)-4-(3-fluorophenyl)-3-methyl-1H-pyrazole-5-carboxylic acid]
Second: Cc1nn(-c2nc(-c3ccc(Cl)c(Cl)c3)c(OC(C)C)s2)c(C(=O)O)c1-c1cccc(F)c1 [Compound 230, 1-(4-(3,4-dichlorophenyl)-5-isopropoxythiazol-2-yl)-4-(3-fluorophenyl)-3-methyl-1H-pyrazole-5-carboxylic acid]
The EC50 of the first is higher: 10 to 25 µM for the first, 5 to 10 µM for the second.

`Cc1nn(-c2nc(-c3ccc(C(F)F)cc3)c(SC(C)C)s2)c(C(=O)O)c1-c1cccc(F)c1` [Compound 229, 1-(4-(4-(difluoromethyl)phenyl)-5-(isopropylthio)thiazol-2-yl)-4-(3-fluorophenyl)-3-methyl-1H-pyrazole-5-carboxylic acid] and `CCc1ccc(-c2nc(-n3nc(C)c(-c4cccc(F)c4)c3C(=O)O)sc2SC(C)C)cc1` [Compound 231, 1-(4-(4-ethylphenyl)-5-(isopropylthio)thiazol-2-yl)-4-(3-fluorophenyl)-3-methyl-1H-pyrazole-5-carboxylic Acid] fall in the same range of EC50: 1 to 5 µM for the first, 1 to 5 µM for the second.

Compared with `Cc1cc(-c2c(C)nn(-c3nc(-c4ccc(C(F)(F)F)cc4)c(SC(C)C)s3)c2C)cc(C)n1` [Compound 232, 2-(4-(2,6-dimethylpyridin-4-yl)-3,5-dimethyl-1H-pyrazol-1-yl)-5-(isopropylthio)-4-(4-(trifluoromethyl)phenyl) thiazole], `Cc1nn(-c2nc(-c3ccc(C(F)(F)F)cc3)c(SC(C)C)s2)c(C(=O)O)c1-c1ccc(F)cc1` [Compound 237, 4-(4-fluorophenyl)-1-(5-(isopropylthio)-4-(4-(trifluoromethyl)phenyl)thiazol-2-yl)-3-methyl-1H-pyrazole-5-carboxylic acid] is lower in EC50: 25 to 50 µM for the first, 1 to 5 µM for the second.

From patent publication US10537558B2 (Bantam Pharmaceutical, LLC, priority 2015, dated 2020)
